# PubChem BioAssay (NCI)
#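 Interpolation was linear, between the two tested concentrations surrounding the appropriate level; five concentrations were tested over 48 hours in 96-well plates. GI50 = concentration required for 50% inhibition of growth. TGI: concentration producing complete growth inhibition.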
# Legend:
# Test in all cases: inhibition of tumour cell growth, NCI panel, 48 h
# SK-MEL-28 melanoma = system: SK-MEL-28 melanoma
# DU-145 prostate = system: DU-145 prostate
# PC-3 prostate = system: PC-3 prostate
# NCI-H522 lung = system: NCI-H522 lung
# HCC-2998 colon = system: HCC-2998 colon
# HS 578T breast = system: HS 578T breast
# 786-0 renal = system: 786-0 renal
# RPMI-8226 leukemia = system: RPMI-8226 leukemia
# UACC-257 melanoma = system: UACC-257 melanoma
# HOP-92 NSCLC = system: HOP-92 NSCLC
# U251 CNS = system: U251 CNS
# MALME-3M melanoma = system: MALME-3M melanoma
# HOP-62 NSCLC = system: HOP-62 NSCLC
# SK-MEL-5 melanoma = system: SK-MEL-5 melanoma
# LOX IMVI melanoma = system: LOX IMVI melanoma
# NCI-H226 lung = system: NCI-H226 lung
# MOLT-4 leukemia = system: MOLT-4 leukemia
# EKVX NSCLC = system: EKVX NSCLC
# OVCAR-5 ovarian = system: OVCAR-5 ovarian
# CAKI-1 renal = system: CAKI-1 renal
# M14 melanoma = system: M14 melanoma
# SF-268 CNS = system: SF-268 CNS
# ACHN renal = system: ACHN renal
# SR leukemia = system: SR leukemia
# OVCAR-8 ovarian = system: OVCAR-8 ovarian
# NCI/ADR-RES ovarian = system: NCI/ADR-RES ovarian
# RXF 393 renal = system: RXF 393 renal
# UACC-62 melanoma = system: UACC-62 melanoma
smiles,measurement,setting,value
CN(C)c1cc[n+](/C(NS(=O)(=O)c2cc(C(=O)Nc3ccc(Cl)cc3)c(Cl)cc2[S-])=C(\C#N)C(=O)c2ccccc2)cc1,GI50,SK-MEL-28 melanoma,30.8 µM
same,TGI,SK-MEL-28 melanoma,> 100 µM
same,GI50,DU-145 prostate,17.2 µM
same,TGI,DU-145 prostate,82.6 µM
same,GI50,PC-3 prostate,24.9 µM
same,TGI,PC-3 prostate,75.5 µM
same,GI50,NCI-H522 lung,23.7 µM
same,TGI,NCI-H522 lung,58.5 µM
same,GI50,HCC-2998 colon,20.3 µM
same,TGI,HCC-2998 colon,57.2 µM
same,GI50,HS 578T breast,26.1 µM
same,TGI,HS 578T breast,67 µM
same,GI50,786-0 renal,> 100 µM
same,TGI,786-0 renal,> 100 µM
same,GI50,RPMI-8226 leukemia,40.9 µM
same,TGI,RPMI-8226 leukemia,> 100 µM
same,GI50,UACC-257 melanoma,90.2 µM
same,TGI,UACC-257 melanoma,> 100 µM
same,GI50,HOP-92 NSCLC,13.9 µM
same,TGI,HOP-92 NSCLC,36.3 µM
same,GI50,U251 CNS,61 µM
same,TGI,U251 CNS,> 100 µM
same,GI50,MALME-3M melanoma,31.7 µM
same,TGI,MALME-3M melanoma,> 100 µM
same,GI50,HOP-62 NSCLC,69.5 µM
same,TGI,HOP-62 NSCLC,> 100 µM
same,GI50,SK-MEL-5 melanoma,21.3 µM
same,TGI,SK-MEL-5 melanoma,81.8 µM
same,GI50,LOX IMVI melanoma,49.7 µM
same,TGI,LOX IMVI melanoma,> 100 µM
same,GI50,NCI-H226 lung,21.6 µM
same,TGI,NCI-H226 lung,49.3 µM
same,GI50,MOLT-4 leukemia,26.8 µM
same,TGI,MOLT-4 leukemia,> 100 µM
same,GI50,EKVX NSCLC,29.3 µM
same,TGI,EKVX NSCLC,95.9 µM
same,GI50,OVCAR-5 ovarian,22.7 µM
same,TGI,OVCAR-5 ovarian,53 µM
same,GI50,CAKI-1 renal,18.7 µM
same,TGI,CAKI-1 renal,43 µM
same,GI50,M14 melanoma,35.6 µM
same,TGI,M14 melanoma,> 100 µM
same,GI50,SF-268 CNS,40.6 µM
same,TGI,SF-268 CNS,> 100 µM
same,GI50,ACHN renal,50 µM
same,TGI,ACHN renal,> 100 µM
same,GI50,SR leukemia,> 100 µM
same,TGI,SR leukemia,> 100 µM
same,GI50,OVCAR-8 ovarian,39.1 µM
same,TGI,OVCAR-8 ovarian,> 100 µM
same,GI50,NCI/ADR-RES ovarian,> 100 µM
same,TGI,NCI/ADR-RES ovarian,> 100 µM
same,GI50,RXF 393 renal,55.4 µM
same,TGI,RXF 393 renal,> 100 µM
same,GI50,UACC-62 melanoma,29.3 µM
same,TGI,UACC-62 melanoma,98.6 µM
